These compounds were tested against MAPK14 (human) (UniProt Q16539) (assay: Inhibtion of MAPK14 Kinase Activity).
MAPK14 (human), sequence (Q16539 whole entry, looked up): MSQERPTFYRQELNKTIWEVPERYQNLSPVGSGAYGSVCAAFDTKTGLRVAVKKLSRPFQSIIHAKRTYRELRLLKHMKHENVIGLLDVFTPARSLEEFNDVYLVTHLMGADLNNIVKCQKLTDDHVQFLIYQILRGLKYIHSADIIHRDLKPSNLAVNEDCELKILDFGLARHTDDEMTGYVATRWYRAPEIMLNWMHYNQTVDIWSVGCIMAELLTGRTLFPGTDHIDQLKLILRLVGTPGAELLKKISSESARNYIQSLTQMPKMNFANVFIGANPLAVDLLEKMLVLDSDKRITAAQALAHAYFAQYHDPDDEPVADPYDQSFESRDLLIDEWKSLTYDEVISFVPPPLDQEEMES

IC50, < 100 nM:
CC(C)(C)OC(=O)[C@H](Cc1ccccc1)NCCCOc1cc(F)c(-n2c(N)c(C(=O)c3ccc(F)cc3F)ccc2=O)c(F)c1
Nc1c(C(=O)c2ccc(F)cc2F)ccc(=O)n1-c1c(F)cc(OCCCN[C@H](C(=O)OC2Cc3ccccc3C2)c2ccccc2)cc1F
Nc1c(C(=O)c2ccc(F)cc2)ccc(=O)n1-c1ccc(CCN[C@H](C(=O)O)c2ccccc2)cc1
Nc1c(C(=O)c2ccc(F)cc2)ccc(=O)n1-c1c(F)cc(OC2CCC(N[C@H](C(=O)OC3CCCC3)c3ccccc3)CC2)cc1F (some centres not stated)
Nc1c(C(=O)c2ccc(F)cc2F)ccc(=O)n1-c1ccc(OCCCN[C@H](C(=O)OC2CCCC2)c2ccccc2)cc1
CC(C)C[C@H](NCc1cc(F)c(-n2c(N)c(C(=O)c3ccc(F)cc3F)ccc2=O)c(F)c1)C(=O)O
Nc1c(C(=O)c2ccc(F)cc2)ccc(=O)n1-c1ccc(OCCCN[C@H](C(=O)O)c2ccccc2)cc1
Cc1cc(C(=O)c2ccc(=O)n(-c3c(F)cc(OCCCN[C@@H](CC(C)C)C(=O)O)cc3F)c2N)ccc1F
Nc1c(C(=O)c2ccc(F)cc2F)ccc(=O)n1-c1c(F)cc(OCCCN[C@H](C(=O)OC2CCCC2)C2CCCCC2)cc1F
Cc1cc(C(=O)c2ccc(=O)n(-c3c(F)cc(OCCCN[C@H](C(=O)OC4CCCC4)c4ccccc4)cc3F)c2N)ccc1F
CC(C)C[C@H](NCCc1ccc(-n2c(N)c(C(=O)c3ccc(F)cc3F)ccc2=O)cc1)C(=O)O
CC(C)C[C@H](NCCCOc1cc(F)c(-n2c(N)c(C(=O)c3ccc(F)cc3F)ccc2=O)c(F)c1)C(=O)OCCN1CCOCC1
Nc1c(C(=O)c2ccc(F)cc2)ccc(=O)n1-c1c(F)cc(OC2CCC(N[C@@H](Cc3ccccc3)C(=O)O)CC2)cc1F (some centres not stated)
Nc1c(C(=O)c2ccc(F)cc2F)ccc(=O)n1-c1ccc(OCCCN[C@@H](Cc2ccccc2)C(=O)OC2CCCC2)cc1
CC(C)C[C@H](NCCCOc1ccc(-n2c(N)c(C(=O)c3ccc(F)cc3F)ccc2=O)cc1)C(=O)O
CC(C)C[C@H](NCCCOc1cc(F)c(-n2c(N)c(C(=O)c3ccc(F)cc3F)ccc2=O)c(F)c1)C(=O)OC(C)(C)C
CC(C)C[C@H](NC1CCC(Oc2cc(F)c(-n3c(N)c(C(=O)c4ccc(F)cc4)ccc3=O)c(F)c2)CC1)C(=O)OC1CCCC1 (some centres not stated)
Cc1cc(C(=O)c2ccc(=O)n(-c3c(F)cc(OCCCN[C@@H](CC(C)C)C(=O)OC4CCCC4)cc3F)c2N)ccc1F
Nc1c(C(=O)c2ccc(F)cc2)ccc(=O)n1-c1c(F)cc(CN[C@@H](Cc2ccccc2)C(=O)OC2CCCC2)cc1F
CC(C)C[C@H](NCc1ccc(-n2c(N)c(C(=O)c3ccc(F)cc3F)ccc2=O)cc1)C(=O)O
CC(C)(C)OC(=O)[C@@H](NCCCOc1cc(F)c(-n2c(N)c(C(=O)c3ccc(F)cc3F)ccc2=O)c(F)c1)c1ccccc1
CC(C)C[C@H](NCCCOc1ccc(-n2c(N)c(C(=O)c3ccc(F)cc3F)ccc2=O)cc1)C(=O)OC1CCCC1
Nc1c(C(=O)c2ccc(F)cc2)ccc(=O)n1-c1c(F)cc(OCCCN[C@@H](Cc2ccccc2)C(=O)O)cc1F
CC(C)C[C@H](NCc1ccc(-n2c(N)c(C(=O)c3ccc(F)cc3F)ccc2=O)cc1)C(=O)OC1CCCC1
Cc1cc(C(=O)c2ccc(=O)n(-c3c(F)cc(OCCCN[C@@H](Cc4ccccc4)C(=O)OC4CCCC4)cc3F)c2N)ccc1F
Nc1c(C(=O)c2ccc(F)cc2)ccc(=O)n1-c1c(F)cc(OCCCN[C@@H](Cc2ccccc2)C(=O)OC2CCCC2)cc1F
CC(C)C[C@H](NCCCOc1ccc(-n2c(N)c(C(=O)c3ccc(F)cc3F)ccc2=O)cc1)C(=O)OC(C)(C)C
Cc1cc(C(=O)c2ccc(=O)n(-c3ccc(OCCCN[C@@H](CC(C)C)C(=O)O)cc3)c2N)ccc1F
Nc1c(C(=O)c2ccc(F)cc2F)ccc(=O)n1-c1c(F)cc(OCCCN[C@@H](C(=O)O)c2ccccc2)cc1F
CC(C)(C)OC(=O)[C@@H](NCCCOc1cc(F)c(-n2c(N)c(C(=O)c3ccc(F)cc3F)ccc2=O)c(F)c1)C1CCCCC1
CC(C)C[C@@H](NCCCOc1cc(F)c(-n2c(N)c(C(=O)c3ccc(F)cc3F)ccc2=O)c(F)c1)C(=O)OC1CCCC1
CC(C)C[C@H](NCCCCCOc1cc(F)c(-n2c(N)c(C(=O)c3ccc(F)cc3F)ccc2=O)c(F)c1)C(=O)OC(C)(C)C
Cc1cc(C(=O)c2ccc(=O)n(-c3c(F)cc(OCCCN[C@H](C(=O)O)c4ccccc4)cc3F)c2N)ccc1F
CC(C)C[C@H](NCCCOc1cc(F)c(-n2c(N)c(C(=O)c3ccc(F)cc3)ccc2=O)c(F)c1)C(=O)OC1CCCC1
Nc1c(C(=O)c2ccc(F)cc2F)ccc(=O)n1-c1ccc(CN[C@H](C(=O)O)c2ccccc2)cc1
CC(C)(C)OC(=O)[C@@H](NCCCOc1cc(F)c(-n2c(N)c(C(=O)c3ccc(F)cc3)ccc2=O)c(F)c1)c1ccccc1
Nc1c(C(=O)c2ccc(F)cc2F)ccc(=O)n1-c1c(F)cc(OCCCN[C@H](C(=O)OC2CC3CCC2C3)c2ccccc2)cc1F (some centres not stated)
Cc1cc(C(=O)c2ccc(=O)n(-c3ccc(CN[C@@H](Cc4ccccc4)C(=O)O)cc3)c2N)ccc1F
Cc1cc(C(=O)c2ccc(=O)n(-c3ccc(OCCCN[C@H](C(=O)OC4CCCC4)c4ccccc4)cc3)c2N)ccc1F
Nc1c(C(=O)c2ccc(F)cc2F)ccc(=O)n1-c1c(F)cc(OCCCN[C@@H](C(=O)OC2CCCC2)c2ccccc2)cc1F
Nc1c(C(=O)c2ccc(F)cc2)ccc(=O)n1-c1c(F)cc(OC2CCC(N[C@@H](Cc3ccccc3)C(=O)OC3CCCC3)CC2)cc1F (some centres not stated)
O=C(c1ccc(F)cc1)c1ccc(=O)[nH]c1Nc1c(F)cc(CN[C@@H](Cc2ccccc2)C(=O)OC2CCCC2)cc1F
CC(C)C[C@H](NCCCCCOc1cc(F)c(-n2c(N)c(C(=O)c3ccc(F)cc3F)ccc2=O)c(F)c1)C(=O)O
Nc1c(C(=O)c2ccc(F)cc2F)ccc(=O)n1-c1c(F)cc(OCCCN[C@@H](Cc2ccccc2)C(=O)OC2CCCC2)cc1F
Nc1c(C(=O)c2ccc(F)cc2)ccc(=O)n1-c1c(F)cc(OCCCN[C@H](C(=O)OC2CCCC2)c2ccccc2)cc1F
Nc1c(C(=O)c2ccc(F)cc2)ccc(=O)n1-c1ccc(OCCCN[C@H](C(=O)OC2CCCC2)c2ccccc2)cc1
Nc1c(C(=O)c2ccc(F)cc2)ccc(=O)n1-c1ccc(OCCCN[C@@H](Cc2ccccc2)C(=O)OC2CCCC2)cc1
CC(C)C[C@@H](NCCCOc1cc(F)c(-n2c(N)c(C(=O)c3ccc(F)cc3F)ccc2=O)c(F)c1)C(=O)OC(C)(C)C
CC(C)C[C@H](NCc1cc(F)c(-n2c(N)c(C(=O)c3ccc(F)cc3F)ccc2=O)c(F)c1)C(=O)OC1CCCC1
Nc1c(C(=O)c2ccc(F)cc2F)ccc(=O)n1-c1ccc(CN[C@@H](Cc2ccccc2)C(=O)O)cc1
CCOC(=O)[C@H](CC(C)C)NCCCOc1cc(F)c(-n2c(N)c(C(=O)c3ccc(F)cc3)ccc2=O)c(F)c1
Nc1c(C(=O)c2ccc(F)cc2F)ccc(=O)n1-c1c(F)cc(OCCCN[C@H](C(=O)O)c2ccccc2)cc1F
CC(C)C[C@H](NCCCOc1ccc(-n2c(N)c(C(=O)c3ccc(F)cc3)ccc2=O)cc1)C(=O)OC1CCCC1
CC(C)C[C@H](NCCCOc1cc(F)c(-n2c(N)c(C(=O)c3ccc(F)cc3F)ccc2=O)c(F)c1)C(=O)O
CC(C)C[C@H](NCCCOc1ccc(-n2c(N)c(C(=O)c3ccc(F)cc3)ccc2=O)cc1)C(=O)O
CC(C)C[C@H](NC1CCC(Oc2cc(F)c(-n3c(N)c(C(=O)c4ccc(F)cc4)ccc3=O)c(F)c2)CC1)C(=O)O (some centres not stated)
Nc1c(C(=O)c2ccc(F)cc2F)ccc(=O)n1-c1ccc(OCCCN[C@H](C(=O)O)c2ccccc2)cc1
CC(C)C[C@H](NCCCCCOc1cc(F)c(-n2c(N)c(C(=O)c3ccc(F)cc3)ccc2=O)c(F)c1)C(=O)O
CC(C)C[C@H](NCCCOc1cc(F)c(-n2c(N)c(C(=O)c3ccc(F)cc3F)ccc2=O)c(F)c1)C(=O)OC1CCCC1
CC(C)C[C@H](NCCCOc1cc(F)c(-n2c(N)c(C(=O)c3ccc(F)cc3)ccc2=O)c(F)c1)C(=O)O
Nc1c(C(=O)c2ccc(F)cc2)ccc(=O)n1-c1c(F)cc(OCCCN[C@H](C(=O)O)c2ccccc2)cc1F
Nc1c(C(=O)c2ccc(F)cc2)ccc(=O)n1-c1c(F)cc(CN[C@@H](Cc2ccccc2)C(=O)O)cc1F
Nc1c(C(=O)c2ccc(F)cc2F)ccc(=O)n1-c1c(F)cc(OCCCN[C@H](C(=O)O)C2CCCCC2)cc1F
Nc1c(C(=O)c2ccc(F)cc2F)ccc(=O)n1-c1ccc(CN[C@@H](Cc2ccccc2)C(=O)OC2CCCC2)cc1
Nc1c(C(=O)c2ccc(F)cc2F)ccc(=O)n1-c1ccc(CN[C@H](C(=O)OC2CCCC2)c2ccccc2)cc1
Nc1c(C(=O)c2ccc(F)cc2)ccc(=O)n1-c1ccc(OCCCN[C@@H](Cc2ccccc2)C(=O)O)cc1
CC(C)C[C@H](NCCCCCOc1cc(F)c(-n2c(N)c(C(=O)c3ccc(F)cc3F)ccc2=O)c(F)c1)C(=O)OC1CCCC1
